Patent US9499553B2 (CHUGAI SEIYAKU KABUSHIKI KAISHA, priority 2013, dated 2016)

Target: T1, human NaPi-IIb (Homo sapiens, UniProt O95436)
T1 construct: expressed in transfected cells
T1 sequence (O95436 1-690): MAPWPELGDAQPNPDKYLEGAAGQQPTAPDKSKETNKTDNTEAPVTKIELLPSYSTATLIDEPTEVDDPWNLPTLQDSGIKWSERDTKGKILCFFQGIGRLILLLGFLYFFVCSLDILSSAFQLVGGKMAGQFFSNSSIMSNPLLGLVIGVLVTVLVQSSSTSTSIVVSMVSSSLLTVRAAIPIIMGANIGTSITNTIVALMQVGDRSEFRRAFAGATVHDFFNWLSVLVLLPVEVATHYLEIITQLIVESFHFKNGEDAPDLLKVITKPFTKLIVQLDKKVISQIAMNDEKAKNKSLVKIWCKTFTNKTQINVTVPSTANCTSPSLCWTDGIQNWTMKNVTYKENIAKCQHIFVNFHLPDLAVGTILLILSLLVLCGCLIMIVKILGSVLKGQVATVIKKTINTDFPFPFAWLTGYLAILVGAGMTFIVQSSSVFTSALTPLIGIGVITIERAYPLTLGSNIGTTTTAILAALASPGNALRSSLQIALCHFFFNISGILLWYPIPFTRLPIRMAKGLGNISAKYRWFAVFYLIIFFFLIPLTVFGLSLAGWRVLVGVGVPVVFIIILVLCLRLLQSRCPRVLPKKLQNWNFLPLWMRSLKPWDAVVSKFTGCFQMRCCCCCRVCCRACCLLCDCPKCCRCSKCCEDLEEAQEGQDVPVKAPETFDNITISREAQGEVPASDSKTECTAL
Test: Inhibitory effect on 33PO4 uptake into human NaPi-IIb-expressing CHO cells
Assay type: cell-based
Details: read-out: IC50
Description: Test Example 2: Inhibitory Effect on PO4 Uptake into Human NaPi-IIb-Expressing Cell CHO cells were transfected with human NaPi-IIb expression plasmids, and a stably human NaPi-IIb-expressing cell line was obtained using G418. The human NaPi-IIb-expressing cells were inoculated to a 96-well plate and incubated overnight in a CO2 incubator. […] After a given time, a 1/20 volume of buffer A containing ^33PO4 was added thereto and reacted at room temperature. After washing with ice-cold buffer A, a liquid scintillator was added to each reaction mixture, and the amount of ^33PO4 uptake was measured using TopCount.

SMILES	IC50
CSc1ccc(-c2nc(C(F)(F)F)ccc2NC(=O)C2=C(O)[C@@]3(C)CCCN3N(Cc3cccc(F)c3F)C2=O)cn1 [Example 105]	6.3 µM
C[C@]12CCCN1N(Cc1ccc(OCCN3CCOCC3)c(F)c1F)C(=O)C(C(=O)Nc1ccc(C(F)(F)F)nc1-c1cncc(C(F)(F)F)c1)=C2O [Example 106]	12 µM
C[C@@]12CCCN1N(Cc1ccc(OCCN3CCOCC3)c(F)c1F)C(=O)C(C(=O)Nc1ccc(Cl)cc1-c1cc(C(F)(F)F)ncn1)=C2O [Example 107]	25.9 µM
C[C@@]12CCCN1N(Cc1ccc(OCCN3CCOCC3)c(F)c1F)C(=O)C(C(=O)Nc1ccc(C(F)(F)F)cc1-c1cc(C(F)(F)F)ncn1)=C2O [Example 108]	26.1 µM
Cc1ncc(-c2cc(C(F)(F)F)ccc2NC(=O)C2=C(O)[C@@]3(C)CCCN3N(Cc3cccc(F)c3F)C2=O)cc1C#N [Example 109, (4aR)—N-[2-(5-Cyano-6-methylpyridin-3-yl)-4-(trifluoromethyl)phenyl]-1-[(2,3-difluorophenyl)methyl]-4-hydroxy-4a-methyl-2-oxo-6,7-dihydro-5H-pyrrolo[1,2-b]pyridazine-3-carboxamide]	9.4 µM
C[C@]12CCCN1N(Cc1cccc(F)c1F)C(=O)C(C(=O)Nc1ccc(C(F)(F)F)cc1-c1cnc(N3CC4(COC4)C3)c(C#N)c1)=C2O [Example 111, (4aR)—N-[2-[5-Cyano-6-(2-oxa-6-azaspiro[3.3]heptan-6-yl)pyridin-3-yl]-4-(trifluoromethyl)phenyl]-1-[(2,3-difluorophenyl)methyl]-4-hydroxy-4a-methyl-2-oxo-6,7-dihydro-5H-pyrrolo[1,2-b]pyridazine-3-carboxamide]	20 µM
CSc1cc(-c2cc(C(F)(F)F)ccc2NC(=O)C2=C(O)[C@@]3(C)CCCN3N(Cc3cccc(F)c3F)C2=O)cnc1C#N [Example 113, (4aR)—N-[2-(6-Cyano-5-methylsulfanylpyridin-3-yl)-4-(trifluoromethyl)phenyl]-1-[(2,3-difluorophenyl)methyl]-4-hydroxy-4a-methyl-2-oxo-6,7-dihydro-5H-pyrrolo[1,2-b]pyridazine-3-carboxamide]	15.5 µM
COc1cc(-c2cc(C(F)(F)F)ccc2NC(=O)C2=C(O)[C@@]3(C)CCCN3N(Cc3cccc(F)c3F)C2=O)cnc1C#N [Example 114, (4aR)—N-[2-(6-Cyano-5-methoxypyridin-3-yl)-4-(trifluoromethyl)phenyl]-1-[(2,3-difluorophenyl)methyl]-4-hydroxy-4a-methyl-2-oxo-6,7-dihydro-5H-pyrrolo[1,2-b]pyridazine-3-carboxamide]	7.9 µM
CSc1ccc(-c2cc(C(F)(F)F)ccc2NC(=O)C2=C(O)[C@@]3(C)CCCN3N(Cc3ccc(CCCCCCC(=O)O)c(F)c3F)C2=O)cn1 [Example 115, 7-[4-[[(4aR)-4-Hydroxy-4a-methyl-3-[[2-(6-methylsulfanylpyridin-3-v1)-4-(trifluoromethyl)phenyl]carbamoyl]-2-oxo-6,7-dihydro-5H-pyrrolo[1,2-b]pyridazin-1-yl]methyl]-2,3-difluorophenyl]heptanoate]	6.9 µM
C[C@]12CCCN1N(Cc1ccc(CCCCCCC(=O)O)c(F)c1F)C(=O)C(C(=O)Nc1ccc(Cl)cc1-c1ccc(C(F)(F)F)nc1)=C2O [Example 116, 7-[4-[[(4aR)-3-[[4-Chloro-2-[6-(trifluoromethyl)pyridin-3-yl]phenyl]carbamoyl]-4-hydroxy-4a-methyl-2-oxo-6,7-dihydro-5H-pyrrolo[1,2-b]pyridazin-1-yl]methyl]-2,3-difluorophenyl]heptanoate]	8.1 µM
CSc1ccc(-c2cc(C(F)(F)F)ccc2NC(=O)C2=C(O)[C@@]3(C)CCCN3N(Cc3ccc(C#CCCCCC(=O)O)c(F)c3F)C2=O)cn1 [Example 117, 7-[4-[[(4aR)-4-Hydroxy-4a-methyl-3-[[2-(6-methylsulfanylpyridin-3-yl)-4-(trifluoromethyl)phenyl]carbamoyl]-2-oxo-6,7-dihydro-5H-pyrrolo[1,2-b]pyridazin-1-yl]methyl]-2,3-difluorophenyl]hept-6-ynoate]	9.5 µM
CSc1ncc(-c2cc(C(F)(F)F)ccc2NC(=O)C2=C(O)[C@@]3(C)CCCN3N(Cc3ccc(C#CCCCCC(=O)O)c(F)c3F)C2=O)cn1 [Example 118, 7-[4-[[(4aR)-4-Hydroxy-4a-methyl-3-[[2-(2-methylsulfanylpyrimidin-5-yl)-4-(trifluoromethyl)phenyl]carbamoyl]-2-oxo-6,7-dihydro-5H-pyrrolo[1,2-b]pyridazin-1-yl]methyl]-2,3-difluorophenyl]hept-6-ynoate]	9.1 µM
C[C@]12CCCN1N(Cc1ccc(C#CCCCCC(=O)O)c(F)c1F)C(=O)C(C(=O)Nc1ccc(C(F)(F)F)cc1-c1cncc(C(F)(F)F)c1)=C2O [Example 119, 7-[4-[[(4aR)-4-Hydroxy-4a-methyl-2-oxo-3-[[4-(trifluoromethyl)-2-[5-(trifluoromethyl)pyridin-3-yl]phenyl]carbamoyl]-6,7-dihydro-5H-pyrrolo[1,2-b]pyridazin-1-yl]methyl]-2,3-difluorophenyl]hept-6-ynoate]	9.2 µM
CSc1ccc(-c2cc(C(F)(F)F)ccc2NC(=O)C2=C(O)[C@@]3(C)CCCN3N(Cc3ccc(OCCCCOC[C@H](O)CO)c(F)c3F)C2=O)cn1 [Example 120, (4aR)-1-[[4-[4-[(2R)-2,3-Dihydroxypropoxy]butoxy]-2,3-difluorophenyl]methyl]-4-hydroxy-4a-methyl-N-[2-(6-methylsulfanylpyridin-3-v1)-4-(trifluoromethyl)phenyl]-2-oxo-6,7-dihydro-5H-pyrrolo[1,2-b]pyridazine-3-carboxamide]	20.5 µM
C[C@]12CCCN1N(Cc1ccc(OCCCCOC[C@H](O)CO)c(F)c1F)C(=O)C(C(=O)Nc1ccc(Cl)cc1-c1ccc(C(F)(F)F)nc1)=C2O [Example 121, (4aR)—N-[4-Chloro-2-[6-(trifluoromethyl)pyridin-3-yl]phenyl]-1-[[4-[4-[(2R)-2,3-dihydroxypropoxy]butoxy]-2,3-difluorophenyl]methyl]-4-hydroxy-4a-methyl-2-oxo-6,7-dihydro-5H-pyrrolo[1,2-b]pyridazine-3-carboxamide]	16 µM
C[C@]12CCCN1N(Cc1cccc(F)c1F)C(=O)C(C(=O)Nc1ccc(Br)cc1-c1ccc(Cl)nc1)=C2O [Example 122, (4aR)—N-[4-Bromo-2-(6-chloropyridin-3-yl)phenyl]-1-[(2,3-difluorophenyl)methyl]-4-hydroxy-4a-methyl-2-oxo-6,7-dihydro-5H-pyrrolo[1,2-b]pyridazine-3-carboxamide]	8.6 µM
COc1cccc(-c2cc(C(F)(F)F)ccc2NC(=O)C2=C(O)[C@@]3(C)CCCN3N(Cc3ccc(C#CCOCCCCO)c(F)c3F)C2=O)c1OC [Example 123, (4aR)-1-[[2,3-Difluoro-4-[3-(4-hydroxybutoxy)prop-1-ynil]phenyl]methyl]-N-[2-(2,3-dimethoxyphenyl)-4-(trifluoromethyl)phenyl]-4-hydroxy-4a-methyl-2-oxo-6,7-dihydro-5H-pyrrolo[1,2-b]pyridazine-3-carboxamide]	14.8 µM
C[C@]12CCCN1N(Cc1c(F)cc(C#CCCCCCOC[C@H](O)[C@@H](O)CO)cc1F)C(=O)C(C(=O)Nc1ccc(C(F)(F)F)cc1-c1ccc(C(F)(F)F)nc1)=C2O [Example 124, (4aR)-1-[[2,6-Difluoro-4-[7-[(2S,3S)-2,3,4-trihydroxybutoxy]hept-1-ynil]phenyl]methyl]-4-hydroxy-4a-methyl-2-oxo-N-[4-(trifluoromethyl)-2-[6-(trifluoromethyl)pyridin-3-yl]phenyl]-6,7-dihydro-5H-pyrrolo[1,2-b]pyridazine-3-carboxamide]	2.5 µM
C[C@]12CCCN1N(Cc1c(F)cc(CCCCCCCOC[C@H](O)[C@@H](O)CO)cc1F)C(=O)C(C(=O)Nc1ccc(C(F)(F)F)cc1-c1ccc(C(F)(F)F)nc1)=C2O [Example 125]	1.3 µM
C#Cc1ccc(CN2C(=O)C(C(=O)Nc3ccc(C(F)(F)F)cc3-c3cc(C(F)(F)F)ncn3)=C(O)[C@@]3(C)CCCN23)c(F)c1F [Example 126, (4aR)-1-[(4-Ethynyl-2,3-difluorophenyl)methyl]-4-hydroxy-4a-methyl-2-oxo-N-[4-(trifluoromethyl)-2-[6-(trifluoromethyl)pyrimidin-4-yl]phenyl]-6,7-dihydro-5H-pyrrolo[1,2-b]pyridazine-3-carboxamide]	5.5 µM
COc1cccc(-c2cc(C(F)(F)F)ccc2NC(=O)C2=C(O)[C@@]3(C)CCCN3N(Cc3ccc(C#CCOCCCO)c(F)c3F)C2=O)c1OC [Example 127]	17.6 µM
C[C@]12CCCN1N(Cc1ccc(C#CCOCCCCO)c(F)c1F)C(=O)C(C(=O)Nc1ccc(C(F)(F)F)cc1-c1ccc(C(F)(F)F)nc1)=C2O [Example 128]	12 µM
C[C@]12CCCN1N(Cc1c(F)cc(C#CC3(O)CCCC3)cc1F)C(=O)C(C(=O)Nc1ccc(C(F)(F)F)cc1-c1ccc(C(F)(F)F)nc1)=C2O [Example 130]	8.9 µM
